{
  "source": "patent EP1169336B1",
  "about": "“ENT-STEROIDS AS SELECTIVELY ACTIVE ESTROGENS” (Schering Aktiengesellschaft, priority 1999, dated 2000)",
  "key": {"[1]": {"settings": "reported, source not given; cited from earlier work"}, "[2]": {"settings": "Endocrinology 63, 464 (1958); cited from earlier work"}, "[3]": {"test_system": "Rat prost. ER", "experiment": "Estrogen receptor binding study, competition with 3H-estradiol, rat prostate cytosol"}, "[4]": {"target": "human estrogen receptor α (ERα) (Homo sapiens, UniProt P03372)", "sequence (P03372 whole entry)": "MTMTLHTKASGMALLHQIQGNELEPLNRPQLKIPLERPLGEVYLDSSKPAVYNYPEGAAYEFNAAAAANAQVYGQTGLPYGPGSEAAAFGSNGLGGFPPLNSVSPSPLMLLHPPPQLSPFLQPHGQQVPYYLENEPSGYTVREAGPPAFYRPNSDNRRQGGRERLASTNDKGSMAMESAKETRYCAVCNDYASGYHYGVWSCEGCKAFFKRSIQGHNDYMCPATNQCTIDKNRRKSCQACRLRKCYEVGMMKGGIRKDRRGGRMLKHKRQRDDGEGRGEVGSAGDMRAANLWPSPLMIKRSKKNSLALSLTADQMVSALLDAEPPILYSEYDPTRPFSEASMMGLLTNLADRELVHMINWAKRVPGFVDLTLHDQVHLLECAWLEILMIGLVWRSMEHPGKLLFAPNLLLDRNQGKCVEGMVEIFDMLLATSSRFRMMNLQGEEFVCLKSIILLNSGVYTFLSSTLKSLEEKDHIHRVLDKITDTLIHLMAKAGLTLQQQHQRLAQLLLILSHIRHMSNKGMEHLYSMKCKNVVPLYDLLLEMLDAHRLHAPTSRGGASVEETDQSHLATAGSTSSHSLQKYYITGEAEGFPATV", "settings": "cited from earlier work"}, "[5]": {"test_system": "hERβ", "assay_type": "binding, human", "settings": "for ERβ/ ER: quotient of RBA to hERβ and hER"}, "[6]": {"test_system": "Rat uterus ER", "experiment": "Estrogen receptor binding study, competition with 3H-estradiol, rat uterus cytosol", "settings": "3H-estradiol as ligand, estradiol = 100"}, "[7]": {"test_system": "hERβ", "settings": "cited from earlier work"}, "[8]": {"settings": "enantio form; J. Med. Chem. 10, 199-204 1967; cited from earlier work"}},
  "note": "Read-outs that look alike come from different tables or passages of the source.",
  "data": [
    {"compound": "C[C@@]12CC[C@H]3c4ccc(O)cc4CC[C@H]3[C@H]1CC[C@H]2O", "note": "(single isomer, unassigned) [ent-8α-estradiol]", "values": [
      {"measurement": "antilipemic activity", "setting": "[1]", "result": "antilipemic activity in the case of no feminization"}
    ]},
    {"compound": "CC[C@@]12CC[C@@H]3[C@H](CCC4=CC(=O)CC[C@H]43)[C@H]1CC[C@]2(O)C#CCl", "note": "(single isomer, unassigned) [ent-17α-chloroethinyl-17β-hydroxy-18a-homo-estr-4-en-3-one]", "values": [
      {"measurement": "Clauberg Test", "setting": "[2]", "result": "ineffective"}
    ]},
    {"compound": "C[C@]12CC[C@H]3[C@@H](CC=C4C[C@@H](O)CC[C@@]43C)[C@@H]1CC[C@@H]2O", "note": "[5-Andro-stene-diol, 5-Androstenediol]", "values": [
      {"measurement": "Rat prost. ER(RBA)", "setting": "[3]; 3H-estradiol as ligand, prostate cytosol, estradiol = 100", "result": 5},
      {"measurement": "prost. ER/uterus ER", "setting": "[3]; ratio of binding to prostate and uterus receptor", "result": 50},
      {"measurement": "hER RBA*", "setting": "[4]", "result": 6},
      {"measurement": "ERβ/ ER", "setting": "[5]", "result": 3},
      {"measurement": "Rat uterus ER(RBA)", "setting": "[6]", "result": 0.1},
      {"measurement": "hERβ RBA*", "setting": "[7]", "result": 17}
    ]},
    {"compound": "C[C@]12CC[C@@H]3c4ccc(O)cc4CC[C@H]3[C@@H]1C[C@@H](O)C2=O", "note": "[16α-hydroxyestrone]", "values": [
      {"measurement": "RBA value on the rat prostate estrogen receptor compared with the RBA value on the rat uterus estrogen receptor", "setting": "[3]; some studies", "result": "five times better"},
      {"measurement": "binding to the human estrogen receptor β (ERβ) compared with the human estrogen receptor α (ERα)", "setting": "[5]; some studies", "result": "three times better"}
    ]},
    {"compound": "C#C[C@@]1(O)CC[C@@H]2[C@H]3CCc4cc(O)ccc4[C@@H]3CC[C@]21C", "note": "[17α-Ethinylestradiol]", "values": [
      {"measurement": "estrogeneity, relative to estrone", "setting": "[8]", "result": "less than 5%"}
    ]},
    {"compound": "C[C@]12CC[C@@H]3c4ccc(O)cc4CC[C@H]3[C@@H]1C[C@@H](O)[C@@H]2O", "note": "[Estriol]", "values": [
      {"measurement": "ERβ/ ER", "setting": "[5]", "result": 1.5},
      {"measurement": "hERβ RBA*", "setting": "[7]; relative binding affinity, estradiol = 100", "result": 21}
    ]},
    {"compound": "O=c1c(-c2ccc(O)cc2)coc2cc(O)cc(O)c12", "note": "[Geni-steine, Genisteine]", "values": [
      {"measurement": "ERβ/ ER", "setting": "[5]", "result": 7}
    ]}
  ]
}
